What was measured:
[1] = tested on: Aβ42-treated hippocampal slices; experiment: LTP in hippocampal slices treated with oligomeric Aβ42; design: species or system mouse; conditions: 10 μM, 200 nM Aβ42
>291 protein kinases = experiment: Millipore Profiler large-scale kinome screen
panel of 158 GPCRs = experiment: Millipore GPCR Profiler cell-based functional screen (calcium flux FLIPR)
Excerpt: Compounds were screened in vivo using a standard dose escalation screen in mice coupled with clinical observation and testing based on the SHIRPA mouse phenotype assay paradigm (Mammalian Genome 8, 711-719 SHIRPA (1997); herein incorporated by reference in its entirety). To obtain insight into the potential for off-target activity with the largest known family of small molecule drug targets, G-protein coupled receptors (GPCRs), a cell-based functional screen of the final title compounds was done. The Millipore® GPCR Profiler screen employs the ChemiScreen GPCR stable cell line technology used for real-time calcium flux FLIPR assays on a panel of 158 GPCRs. The NCBI Entrez identifier for each GPCR is provided at the vendor site (www.millipore.com). Follow-up validation of any initial hits as being true positives or negatives was done as described above for protein kinases by testing the concentration dependence of any cellular effects.

Aβ42-infused mice [2] = experiment: Contextual fear conditioning in Aβ42-infused mice; format: in vivo, mouse; conditions: 5 mg/Kg, i.p.
[3] = tested on: murine microglial BV-2 cell line; experiment: cells; format: cell-based
Aβ42-infused mice [4] = experiment: 2-day radial arm water maze (RAWM) in Aβ42-infused mice; format: in vivo, mouse; conditions: 5 mg/Kg, i.p.
[5] = tested on: LPS-induced IL-1β in brain cortex; experiment: In vivo LPS-induced brain cortex IL-1β; design: species or system mouse; conditions: oral administration, 20 mg/Kg, 6 hrs after LPS
APP/PS1 mice [6] = experiment: Fear conditioning (contextual and cued) in APP/PS1 mice; conditions: 2.5 mg/kg, daily, p.o., from 2 months of age
APP/PS1 mice [7] = experiment: RAWM in APP/PS1 mice; conditions: 2.5 mg/kg, daily, p.o., from 2 months of age
APP/PS1 mice [8] = experiment: LTP in APP/PS1 mice; format: in vivo, mouse; conditions: 2.5 mg/kg, daily, p.o., from 2 months until 3-4 months of age
[9] = tested on: synaptic depression induced by OGD; experiment: Oxygen glucose deprivation (OGD) in entorhinal slices, field potentials; conditions: 10 μM, 10 min OGD
Experimental: Slice preparation. Animals were anesthetized using urethane (20% solution, 1 mL/100 g body weight) via intraperitoneal injection and then decapitated after disappearance of the tail pinch reflex. After brain removal, horizontal sections (400 μm in thickness), containing the entorhinal area, were made on a Vibratome. All steps were performed in ice-cold oxygenated ACSF solution. Before recording, slices were stored for at least 1 h in a recovery chamber containing oxygenated ACSF solution at room temperature. For electrophysiology, slices were perfused at a rate of 2.5-3 mL/min with oxygenated ACSF at 33±1° C. […] The amplitude of FP was monitored every 20 s and averaged every three responses by online data acquisition software. Effects on synaptic function were evaluated either during ischemia (as the average of FPs amplitude during the last 3 min of 10 min OGD application) or as the recovery of FPs calculated as the averaged relative amplitude of FPs respect to the baseline values after reintroduction of regular ACSF (from 41st to 50th min after the end of OGD). […]

[10] = Repeat dosing, observation of adverse events; format: in vivo, mouse; conditions: aged or diseased animals
Excerpt: Further, the results in a battery of behavioral tests are consistent with a true hippocampus-dependent mechanism of action in attenuation of memory deficits. […] The selective improvement in cognitive behavior was also brought about with no effect on amyloid plaque load (Wilcock, D. M., and Colton, C. A. (2009) Immunotherapy, vascular pathology and microhemorrhages in transgenic mice. CNS Neurol. Disord.: Drug Targets 8, 50-64, herein incorporated by reference in its entirety).

[11] = tested on: APP/PS1 transgenic and APP/PS1 knock-in mice; experiment: β-amyloid plaque count, 6E10 immunohistochemistry; format: in vivo, mouse
Experimental: Histopathology. Immunohistochemistry was performed using the Ventana BenchMark Ultra automated platform. Tissue sections were first deparaffinized using Ventana's “ez-prep” solution. Antigen retrieval was performed by treatment at 95° C. for 54 minutes using Ventana's CC1 (pH 7.3) solution, followed by treatment with 0.3% hydrogen peroxide to block endogenous peroxidase. Tissue sections were then incubated in protein-free block (Biocare's background sniper) for 15 min to inhibit nonspecific binding. Primary antibody (anti-Aβ 6E10 at 1:400, Biocare Medical) was incubated for 32 min at room temperature. […] A board-certified neuropathologist, who was blinded to the treatment versus the control group, analyzed a sagittal section from each mouse and counted the total number of well-formed β-amyloid plaques.
MW-150 treatment improves cognitive performance in the absence of effect on Aβ plaque burden. […] (FIG. 26C) Quantification by a board-certified neuropathologist blinded to the treatment groups was done by analysis of a brain sagittal section from each mouse in which the total number of well-formed β-amyloid plaques in the entire section were counted. […] (FIG. 26D) In a separate experiment with APP/PS1 knock-in (KI) mice, Aβ plaques were quantified from KI mice treated with MW-150 or vehicle.

Row | Compound | LTP deficit in Aβ42-treated slices [1] | large scale kinase screen result (>291 protein kinases) | GPCR screen result (panel of 158 GPCRs) | contextual fear memory deficit in Aβ42-infused mice (Aβ42-infused mice [2]) | IL-1β production with diverse TLR ligands ([3]; BV-2 cells, TLR2, TLR4, TLR7/8, TLR9 ligands) | IC50 ([3]; Mus musculus, LPS-stimulated BV-2 cells, 18 hrs, read-out: IC50 using inhibition of IL-1β overproduction as end point) [nM] | reference memory deficit (RAWM) in Aβ42-infused mice (Aβ42-infused mice [4]) | LPS-induced IL-1β levels in brain cortex [5] | contextual fear memory defect in APP/PS1 mice (APP/PS1 mice [6]) | spatial/reference memory defect (RAWM) in APP/PS1 mice (APP/PS1 mice [7]) | LTP defect in APP/PS1 mice (APP/PS1 mice [8]) | synaptic depression induced by OGD [9] | adverse events with repeat dosing [10] | amyloid plaque burden [11]
1 | CN(C)c1cc(-c2ccncc2)c(-c2ccc3ccccc3c2)nn1 [MW-108 (2)] | ameliorated the Aβ-induced electrophysiological deficit | negative | negative | prevented by MW-108 (2) administration | also seen in BV-2 cells stimulated with diverse TLR ligands | 610 ± 20 | rescued the memory defects | restored IL-1β levels in the brain cortex back towards control |  |  |  |  |  | 
2 | CN1CCN(c2cc(-c3ccncc3)c(-c3ccc4ccccc4c3)nn2)CC1 [27 (MW-150), 6-(4-methylpiperazine-1-yl)-3-(naphthalen-2-yl)-4-(pyridin-4-yl)pyridazine] |  |  |  |  |  |  |  |  | rescue the defect in contextual fear learning | rescue defects in spatial memory | rescue defects in LTP | ameliorated | did not bring about any observed adverse events | no effects of MW-150 treatment on the amyloid plaque burden

— patent publication US11149020B2, “MAP kinase modulators and uses thereof” (The Trustees of Columbia University in the City of New York, priority 2013, dated 2021)
